Results from patent US20110098323A1, “INHIBITORS OF BACTERIAL BIOFILM FORMATION” (MICROBIOTIX, INC., priority 2009, published 2011).

Columns and labels:
S. aureus ATCC 35556 = experiment: MBIC/MIC secondary assay; assay type: cell-based, Staphylococcus aureus; settings: S. aureus ATCC 35556, Table 2; for MIC: Staphylococcus aureus, ATCC35556, read-out: MIC
[1] = In vitro cytotoxicity assay (CC50), Alamar Blue; assay type: cell-based; settings: human, HeLa cells, 10% Fetal Bovine Serum
Description: Validated hits were tested for general cytotoxicity against a mammalian cell line. In this assay, an assay plate was seeded with an immortalized human cell line (HeLa) and exposed to a series of two-fold dilutions of each test compound for 72 hours in standard media containing 10% Fetal Bovine Serum. After exposure to the compounds, the cellular viability was assessed using Alamar Blue™ (AccuMed International, Inc.), an oxidation-reduction indicator that is useful for quantitatively measuring cell-mediated cytotoxicity. Alamar Blue reduction was quantified using fluorescence measurements, and the data were analyzed using a two-parameter curve-fitting program (Assay Explorer, Elsevier MDL, San Rafael, Calif.) to determine the CC50 value, i.e., the compound concentration that decreases cellular viability by 50%. Compounds with CC50/MBIC≧50 were given highest priority. Validated hits that met the criteria for high priority were re-ordered from the original vendor and re-tested.

S. epidermidis 18972 = experiment: MBIC/MIC secondary assay (crystal violet biofilm staining / OD600 growth); assay type: cell-based, Staphylococcus epidermidis; settings: S. epidermidis 18972, Table 2; for MBIC: lowest concentration inhibiting biofilm formation ≧80%; for MIC: Staphylococcus epidermidis, lowest concentration inhibiting growth ≧80%, read-out: MIC
Description: Assays for detecting and measuring bacterial biofilm formation are known in the art. An example of a biofilm formation assay useful in detecting and characterizing biofilm inhibitor compounds is described in Example 1, infra. Briefly, bacterial cells are inoculated into growth medium in individual wells of a 96-well assay plate in the presence or absence of a compound (known biofilm inhibitor or test compound). After incubation for a specified time, growth medium and non-biofilm bacterial cells are removed from each of the wells. The bacterial cells in any biofilms that are adhered to the surface of a well are fixed by addition of ethanol. The ethanol is removed, and the fixed biofilm bacteria cells are stained with crystal violet (CV). The intensity of CV staining is directly correlated with bacterial biofilm formation and is measured in the wells by reading the optical density at 600 nm (OD600). The difference in biofilm formation between untreated control and treated cultures provides an indication of relative biofilm inhibition activity (anti-biofilm activity). Use of different concentrations of an inhibitor in multiple and otherwise duplicate cultures permits determination of a compound's Minimal Biofilm Inhibitory Concentration (MBIC), which is defined herein as the lowest concentration of a compound that inhibits biofilm formation by at least 80% (i.e., ≧80%) compared to untreated control cultures.
A higher throughput was achieved by formatting the assay for use in flat-bottomed 96-well assay plates (Costar 3590 assay plates, Corning Life Sciences, Lowell, Mass.). The biofilm cultures grew on the bottoms of each well in a surface attached mode. In each assay plate, columns 1 and 12 contained untreated cultures, which served as negative controls (0% biofilm inhibition). Each of the assay wells in columns 2-11 contained a unique small molecule from the Microbiotix Screening Library (MSL) at a final concentration of 100 μM. Assay plates were inoculated with 200 μl/well of a culture of Staphylococcus pidermidis 18972 in 0.5×Tryptic Soy Broth (TSB; Becton Dickinson, Franklin Lakes, N.J.) in which the concentration of glucose was adjusted to 0.25% (w/v). The bacterial inocula were prepared by making a 1:100 dilution of an overnight culture grown in TSB in the media used for the screen. After inoculation, assay plates were sealed with foil tape and incubated at 37° C. for 18-20 hours (h). The optical density at 600 nm (OD600) was measured for each well using a VICTOR2V™ multiplate reader (Perkin Elmer, Waltham, Mass.) in order to quantify overall bacterial growth. The assay plates were processed to remove bacterial growth media and non-biofilm cells from the bottom of each assay well. This was accomplished by using a BioTek ELx405™ plate washer (BioTek Instruments, Inc., Winooski, Vt.). Biofilm bacteria were fixed by addition of 50 μl of 95% ethanol for 30 minutes (min). The ethanol was removed, and the fixed biofilm cultures were stained with 50 μl of 0.06% crystal violet (CV) for 60 min. Excess CV was removed by repeated washes using the BioTek ELx405™ plate washer. The amount of CV bound to each assay well was quantified by measuring OD600 using a VICTOR2V™ plate reader (Perkin Elmer).
A secondary assay provided a quantitative measure of both anti-biofilm activity and antibacterial activity in terms of the Minimal Biofilm Inhibitory Concentration (MBIC) and the Minimal Inhibitory Concentration (MIC), respectively. The MBIC and MIC are defined as the lowest compound concentrations that inhibit biofilm formation and bacterial growth, respectively, by at least 80% (i.e., ≧80%). The MBIC/MIC assay is formatted in a manner that is similar to the Microbroth dilution assays described by the Clinical and Laboratory Standards Institute (CLSI; formerly NCCLS) in protocol M7-A7. The growth conditions were optimized for biofilm growth in 96-well assay plates such that the resulting CV staining was within the linear range of detection. […]

| MIC (S. aureus ATCC 35556) | MIC (S. epidermidis 18972) | SMILES | MBIC (S. aureus ATCC 35556) | CC50 at 72 h [1] | MBIC (S. epidermidis 18972) |
| --- | --- | --- | --- | --- | --- |
| ≥ 100 µM | ≥ 100 µM | COc1ccc(C2=C/C(=C/c3ccc(O)c(OC)c3)C(=O)O2)c(OC)c1 [MSL-051097, 3-(4-hydroxy-3-methoxybenzylidene)-5-(2,4-dimethoxyphenyl)furan-2(3H)-one] | 6.25 µM | 29.4 µM | 25 µM |
| ≥ 100 µM | ≥ 100 µM | CCOc1cc(/C=C2\SC(=S)N(c3ccc(Br)cc3)C2=O)ccc1O [MSL-049293, 3-(4-bromophenyl)-5-(3-ethoxy-4-hydroxybenzylidene)-2-thioxothiazolidin-4-one] | 1.5625 µM | ≥ 100 µM | 12.5 µM |
| ≥ 100 µM | ≥ 100 µM | COc1cc(/C=C2\SC(=S)N(c3cccc(Cl)c3)C2=O)cc(Br)c1O [MSL-049731, 3-(3-chlorophenyl)-5-(3-bromo-4-hydroxy-5-methoxybenzylidene)-2-thioxothiazolidin-4-one] | 6.25 µM | – | 25 µM |
